Tested on: LFD or HFD-fed WT mice
Assay: Tunicamycin-induced ER stress and liver damage in LFD- or HFD-fed WT mice
Format: in vivo, mouse
Source text: FIGS. 10A-10J are pictorial and graphical diagrams showing that ER stress is sustained by HFD in MUP-uPA mice. […] Arrows indicate dilated ER (scale bar=1 μm). […] Representative images of livers and H&E (FIG. 10D) and TUNEL (FIG. 10E) staining of liver sections prepared 36 hrs later (scale bar=100 μm). […] Data are means±S.D. (n=3-4 per group). […] All bar graphs represent means±S.D. n=3 per group). *p<0.05.
Although the mechanism responsible for hepatocyte death in young MUP-uPA mice is not entirely clear, their hepatocytes are ER stressed (Sandgren et al., 1991). Indeed, several ER stress markers, including CHOP, GRP78, spliced XBP1 (sXBP1), phosphorylated (p) eIF2α, p-IRE1α and p-JNK, were elevated in 5 weeks old MUP-uPA mice compared with WT (FIGS. 3A and 10A). While most markers declined in 16 week old MUP-uPA mice, paralleling the decline in uPA expression, HFD-fed MUP-uPA mice maintained strong eIF2α and JNK phosphorylation and CHOP expression, (FIGS. 3B and 10A). In WT mice, HFD feeding induced only a slight elevation in p-eIF2α and CHOP mRNA with no effect on CHOP protein (FIG. 3B). Immunohistochemistry (IHC) confirmed nuclear CHOP in hepatocytes of 5 weeks old MUP-uPA mice, which was sustained at 16 weeks of age only in HFD-fed MUP-uPA mice (FIG. 3C). […] After 24 weeks of HFD, expression of the […] ligand TRAIL was also elevated in the MUP-uPA liver. […] Thus, whereas ER stress appears to be induced by uPA expression in 5 weeks old MUP-uPA mice, it declines due to transgene extinction. However, feeding these mice with HFD re-kindles the stress response and induces several cell death mediators that are not expressed in HFD-fed WT mice. To determine whether ER stress can cause ballooning degeneration and hepatocyte death, we injected HFD-fed WT mice with the protein glycosylation inhibitor and ER stress elicitor tunicamycin. This treatment led to rapid (36 hrs) induction of ballooning degeneration, hepatocyte apoptosis and ALT release only in HFD-fed mice (FIGS. 10D-10F).

[1] = HFD-fed WT mice, 1.25 mg/kg i.p., 36 hrs, only in HFD-fed mice

## tunicamycin
HFD-fed WT mice, 1.25 mg/kg i.p., 36 hrs
  liver steatosis (gross appearance of liver): more steatotic
[1]
  ALT release (serum ALT): induction
  ballooning degeneration: induction
  hepatocyte apoptosis (TUNEL): induction
Short term, by itself (without HFD)
  liver damage by tunicamycin alone: did not damage the liver
